Measurements as given in US5298621A, “Oligopeptide derivatives of ipoxantine endowed with immunomodulating activity and pharmaceutical compositions containing same” (Sigma-Tau Industrie Farmaceutiche Riunite S.p.A., priority 1990, dated 1994).

Experiments:
Salmonella typhimurium = experiment: Protective effect in immunodepressed mice experimentally infected with Salmonella typhimurium; assay type: in vivo; conditions: Salmonella typhimurium 1 × 10^3 cells
Source text: Test 2 Assessment of the protective effect induced by ST 657, ST 733, ST 754 and ST 789 on immunodepressed mice experimentally infected.
Male CD1 mice (Charles River, Italy) of different ages were used: mice aged 6 and 12 weeks infected with Klebsiella and mice aged 7 weeks infected with Salmonella (10 mice per group).
Systemic infection in mice was induced via i.p. inoculum of either a pathogenic strain of Klebsiella (K. pneumoniae) or a pathogenic strain of Salmonella (S. typhimurium), which were able to provoke death of the animals within 5 and 20 days, respectively, following the challenge.
Infective doses prepared from overnight broth cultures corresponding to 1.5×10^5 and 3.5×10^5 live cells of K. pneumoniae, and 1×10^3 live cells of S. typhimurium were suspended in 0.2 mL of 5% gastric mucine and then injected.
The immunosuppressor (cyclophosphamide) was administered i.p. in 0.2 mL of sterile saline, 100 mg/kg, 5 days before the infective challenge.
The compounds were administered i.p., 0.25 and 25 mg/kg/day, from day -5 to day -1 (challenge at day 0).
The results obtained are expressed as % mortality and statistically processed with the Fisher's exact test (Biostatistics in Pharmacology, vol. II, Pergamon Press).

Leukemia L 1210 cells = experiment: Protective effect in L 1210 Leukemia-bearing mice; assay type: in vivo; conditions: for Dead/total / MST (mean survival time calculated by the median and the first interquartile range): 0.25 mg/kg i.p. from day +1 to day +10; for Weight control (x ± S.E.): 0.25 mg/kg/day day +1 to +10, in g (unit assumed); for number of surviving animals at the indicated day: 0.25 mg/kg/day
Procedure: Test 4 Assessement of the protective effect of ST 657 and ST 789 in tumor-bearing mice.
Male DBA/2 mice and male CD1 mice (Charles River), both aged 6 weeks, were used.
DBA/2 mice were inoculated i.p. with 1×10^5 Leukemia L 1210 cells (ATCC-American Type Culture Collection-Cell Lines & Hybridomas, 5th Ed., 1985) in 0.1 mL of Hank's medium.
The compounds were adminstered i.p. in sterile saline (0.25 mg/kg/day) from day +1 to day +10 (tumor transplantation at day 0).
Also the body weight of the animals was monitored, from day 0 to day +16 for the L 1210 leukemia-bearing mice, and from day 0 to day +21 for the S 180 sarcoma-bearing mice.
Monitoring of body weight was conducted in order to evaluate the evolution of the neoplastic process. Compounds activity was assessed as Mean Survival Time (MST).

splenocytes = experiment: "In vitro-ex vivo" mytogen (PHA)-induced splenocyte proliferation in mice
Procedure: Test 5 Assessment of the "in vitro-ex vivo" effect of ST 733 and ST 789 on the mytogen (PHA)-induced splenocyte proliferation in mice.
Male B6 D2 F1 mice (Charles River, Italy) aged 7-8 weeks (4 animals per group) were used.
PHA (phytohemagglutinine) active on T lymphocytes was used as mytogen. The mytogen was tested at three different concentrations (suboptimal, optimal, superoptimal): 0.5, 2 and 4 mcg/mL/well.
The compounds were administered i.p. 25 mg/kg/day from day -5 to day -1 (spleen excision at day 0).
The experimental procedure was conducted substantially as described by Kirchner et al, "Splenic suppressor macrophages induced in mice by injection of C. parvum", J. Immunol., 1975, 115:1212.
In particular, the cell suspensions obtained from the spleens of the animals of the same group were pooled and the cell concentration was adjusted to 5×10^6 cell/mL.
To volumes of 0.1 mL of each sample, equal volumes of the mytogen preparation were added so as to obtain the previously indicated final concentrations.
Each sample was prepared in triplicate in U-bottom microtiters. A control, to which 0.1 mL of medium was added instead of the mytogen, was also prepared. The control permits the extent of spontaneous proliferation in the absence of stimulation to be assessed.
The samples were incubated at 37° C. for 48 hours and then they were pulsed with 20 μL ^3 H-TdR (25 μCi/mL).
After 18 hours of further incubation, the cells were collected on filters and counted in a beta-counter to evaluate the incorporated radioactivity (in cpm).
The results for each sample are expressed by calculating the value of the area under the curve (AUC) obtained by plotting the values of the incorporated radioactivity (in cpm) versus the three concentrations of mytogen.
In addition to AUC, also the stimulation index (SI) is considered, that is defined as follows: [formula]

thymocytes = experiment: "In vitro-ex vivo" mytogen (PHA, Con A)-induced murine thymocite proliferation; parameters: species or system mice; conditions: 25 mg/kg/day i.p. from day -4 to day -1
Procedure: Test 7 Assessment of the "in vitro-ex vivo" effect of ST 754, ST 785 and ST 789 on the mytogen (PHA, Con A)-induced murine thymocite proliferation.
The compounds were administered at the dose of 25 mg/kg/day from day -4 to day -1 (thymus excision at day 0). This test was conducted following the procedure described for test 5.
The Stimulation Index (S.I.) is as defined in test 5.

[1] = tested on: responders (thymus of C57B1/6) induced by stimulators (spleen of DBA/2); experiment: "In vitro-ex vivo" mixed lymphocyte reaction (MLR); parameters: species or system mice; conditions: 25 mg/kg/day i.p. from day -5 to day -1
Procedure: Test 8 Assessment of the "in vitro-ex vivo" effect of ST 733, ST 754 and ST 789 on the mixed lymphocyte reaction (MLR).
Male DBA/2 mice (Charles River, Italy) aged 8 weeks were used as "stimulators" (4 animals per group); male inbred C57 B1/6 mice (Charles River, Italy) were used as "responders" (4 animals per group).
The compounds were administered i.p. from day -5 to day -1 (thymus excision of "responders" at day 0) 25 mg/kg/day.
The experimental procedure that was used is described by Hudson, L. and Hay, F. C., Practical Immunology, Blackwell Scientific Publication 290 (1980).

[2] = 0.25 mg/kg/day i.p. day -5 to -1
[3] = 25 mg/kg/day i.p. from day -5 to day -1

| Compound | % Mortality (Salmonella typhimurium; [2]) [%] | % Mortality (Salmonella typhimurium; 25 mg/kg/day i.p. day -5 to -1) [%] | Dead/total (Leukemia L 1210 cells) | MST (mean survival time calculated by the median and the first interquartile range) (Leukemia L 1210 cells) | Weight control (x ± S.E.) (Leukemia L 1210 cells; Day 0) | Weight control (x ± S.E.) (Leukemia L 1210 cells; Day 2) | Weight control (x ± S.E.) (Leukemia L 1210 cells; Day 4) | Weight control (x ± S.E.) (Leukemia L 1210 cells; Day 7) | Weight control (x ± S.E.) (Leukemia L 1210 cells; Day 9) | Weight control (x ± S.E.) (Leukemia L 1210 cells; Day 11) | number of surviving animals at the indicated day (Leukemia L 1210 cells; Day 14) | Weight control (x ± S.E.) (Leukemia L 1210 cells; Day 14) | number of surviving animals at the indicated day (Leukemia L 1210 cells; Day 16) | Weight control (x ± S.E.) (Leukemia L 1210 cells; Day 16) | other results |
| --- | --- | --- | --- | --- | --- | --- | --- | --- | --- | --- | --- | --- | --- | --- | --- |
| N=C(N)NCCC[C@H](NC(=O)OCCCCCn1cnc2c(=O)[nH]cnc21)C(=O)O [ST 789, N-5-(ipoxantin-9-yl) pentyloxycarbonylarginine, reference compound] | 10 | 20 | 9/9 | 14.0 (14.0-15.0) | 18.2 ± 0.3 | 18.0 ± 0.4 | 19.1 ± 0.3 | 20.1 ± 0.4 | 21.8 ± 0.4 | 24.0 ± 0.4 | 3 | 22.7 ± 0.9 | 1 | 22.5 | Body weight (splenocytes; [3]): 23.9 ± 0.1 g; Spleen weight (splenocytes; [3]): 87.0 ± 4.5 mg; Thymus weight (splenocytes; [3]): 64.5 ± 4.6 mg; PHA AUC (area under curve, cpm versus three mytogen concentrations) (splenocytes; PHA 0.5, 2 and 4 mcg/mL/well, 25 mg/kg/day i.p. from day -5 to day -1): 114 × 10^-3; PHA I.S. (stimulation index) (splenocytes; PHA-induced proliferation, 25 mg/kg/day i.p. from day -5 to day -1): 1.30; mytogen-induced proliferation versus the controls (in words) (splenocytes; PHA, 25 mg/kg/day i.p.): slight increase; Splenocytes No. (× 10^7) (splenocytes; pooled samples, 25 mg/kg/day i.p. from day -5 to day -1): 10.0 × 10^7; Body weight (thymocytes): 22.8 ± 0.5 g; Thymus weight (thymocytes): 74.2 ± 4.4 mg; Con A AUC (× 10^-3) (thymocytes; Con A-induced proliferation): 68 × 10^-3; Con A I.S. (stimulation index) (thymocytes; Con A-induced proliferation): 1.10; PHA AUC (area under curve) (thymocytes; PHA-induced proliferation): 3924; PHA I.S. (stimulation index) (thymocytes; PHA-induced proliferation): 1.40; Thymocytes No. (× 10^7) (thymocytes; pooled samples): 12.1 × 10^7; Body weight [1]: 22.1 ± 0.5 g; Spleen weight [1]: 82.7 ± 3.2 mg; Thymus weight [1]: 63.0 ± 7.9 mg; ^3 H-TdR Incorporation (cpm ± S.E.) Non stimulated responders [1]: 132.0 cpm; ^3 H-TdR Incorporation (cpm ± S.E.) Stimulated responders [1]: 9256 cpm; Thymocytes No. (× 10^7) ([1]; pooled samples): 14.7 × 10^7 |
| N-5-(ipoxantin-9-yl) pentyloxycarbonyl glycyl L-aspartate disodium salt [ST 657] | 0 | 0 | 10/10 | 15.5 (13.0-17.0) | 18.2 ± 0.5 | 18.2 ± 0.5 | 18.8 ± 0.5 | 20.1 ± 0.4 | 21.7 ± 0.6 | 23.9 ± 0.8 | 6 | 23.1 ± 0.6 | 3 | 22.4 ± 0.6 |  |
